Measured values taken from PubChem BioAssay (NCI).
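Test compounds were applied to cells in 96-well plates for 48 hours at 5 doses. Definition used: TGI = concentration required for complete inhibition of growth.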

How the values were obtained:
Assay in all cases: NCI tumour cell line growth inhibition, 48 h
UACC-62 melanoma = tested on: UACC-62 melanoma
HOP-18 NSCLC = tested on: HOP-18 NSCLC
HL-60(TB) leukemia = tested on: HL-60(TB) leukemia
MOLT-4 leukemia = tested on: MOLT-4 leukemia
SK-MEL-5 melanoma = tested on: SK-MEL-5 melanoma
COLO 205 colon = tested on: COLO 205 colon
M14 melanoma = tested on: M14 melanoma
MALME-3M melanoma = tested on: MALME-3M melanoma
SN12C renal = tested on: SN12C renal
KM20L2 colon = tested on: KM20L2 colon
NCI-H23 lung = tested on: NCI-H23 lung
HCT-15 colon = tested on: HCT-15 colon
SK-MEL-28 melanoma = tested on: SK-MEL-28 melanoma
ACHN renal = tested on: ACHN renal
SF-295 CNS = tested on: SF-295 CNS
SNB-78 CNS = tested on: SNB-78 CNS
LXFL 529 NSCLC = tested on: LXFL 529 NSCLC
A498 renal = tested on: A498 renal
OVCAR-5 ovarian = tested on: OVCAR-5 ovarian
SNB-19 CNS = tested on: SNB-19 CNS
DMS 114 small cell lung = tested on: DMS 114 small cell lung
EKVX NSCLC = tested on: EKVX NSCLC
A549 NSCLC = tested on: A549 NSCLC
SNB-75 CNS = tested on: SNB-75 CNS
HCC-2998 colon = tested on: HCC-2998 colon
UACC-257 melanoma = tested on: UACC-257 melanoma
SR leukemia = tested on: SR leukemia
LOX IMVI melanoma = tested on: LOX IMVI melanoma
DMS 273 small cell lung = tested on: DMS 273 small cell lung
HOP-62 NSCLC = tested on: HOP-62 NSCLC
HT29 colon = tested on: HT29 colon
NCI-H460 lung = tested on: NCI-H460 lung
M19-MEL melanoma = tested on: M19-MEL melanoma
RXF 393 renal = tested on: RXF 393 renal
DLD-1 colon = tested on: DLD-1 colon
HOP-92 NSCLC = tested on: HOP-92 NSCLC
SF-268 CNS = tested on: SF-268 CNS
OVCAR-8 ovarian = tested on: OVCAR-8 ovarian
KM12 colon = tested on: KM12 colon
786-0 renal = tested on: 786-0 renal
HCT-116 colon = tested on: HCT-116 colon
NCI-H226 lung = tested on: NCI-H226 lung
IGROV1 ovarian = tested on: IGROV1 ovarian
SF-539 CNS = tested on: SF-539 CNS
OVCAR-3 ovarian = tested on: OVCAR-3 ovarian
K-562 leukemia = tested on: K-562 leukemia
CAKI-1 renal = tested on: CAKI-1 renal
TK-10 renal = tested on: TK-10 renal
OVCAR-4 ovarian = tested on: OVCAR-4 ovarian
RPMI-8226 leukemia = tested on: RPMI-8226 leukemia
UO-31 renal = tested on: UO-31 renal
CCRF-CEM leukemia = tested on: CCRF-CEM leukemia
SK-MEL-2 melanoma = tested on: SK-MEL-2 melanoma
NCI-H522 lung = tested on: NCI-H522 lung
U251 CNS = tested on: U251 CNS
SK-OV-3 ovarian = tested on: SK-OV-3 ovarian
SW-620 colon = tested on: SW-620 colon

Measured: TGI

COc1cc2c(cc1O)[C@@]1(Cc3ccc(OC)c(OC)c3)CCC(=O)N1CC2
92.4 µM: HOP-92 NSCLC
> 100 µM: UACC-62 melanoma | HOP-18 NSCLC | HL-60(TB) leukemia | MOLT-4 leukemia | SK-MEL-5 melanoma | COLO 205 colon | M14 melanoma | MALME-3M melanoma | SN12C renal | KM20L2 colon | NCI-H23 lung | HCT-15 colon | SK-MEL-28 melanoma | ACHN renal | SF-295 CNS | SNB-78 CNS | LXFL 529 NSCLC | A498 renal | OVCAR-5 ovarian | SNB-19 CNS | DMS 114 small cell lung | EKVX NSCLC | A549 NSCLC | SNB-75 CNS | HCC-2998 colon | UACC-257 melanoma | SR leukemia | LOX IMVI melanoma | DMS 273 small cell lung | HOP-62 NSCLC | HT29 colon | NCI-H460 lung | M19-MEL melanoma | RXF 393 renal | DLD-1 colon | SF-268 CNS | OVCAR-8 ovarian | KM12 colon | 786-0 renal | HCT-116 colon | NCI-H226 lung | IGROV1 ovarian | SF-539 CNS | OVCAR-3 ovarian | K-562 leukemia | CAKI-1 renal | TK-10 renal | OVCAR-4 ovarian | RPMI-8226 leukemia | UO-31 renal | CCRF-CEM leukemia

N/N=C(\CCN1CCCC1)CC(c1ccccc1)c1c(O)c2ccccc2oc1=O (configuration not stated)
> 100 µM: UACC-62 melanoma | SK-MEL-2 melanoma | HOP-18 NSCLC | HL-60(TB) leukemia | NCI-H522 lung | MOLT-4 leukemia | SK-MEL-5 melanoma | COLO 205 colon | M14 melanoma | MALME-3M melanoma | SN12C renal | KM20L2 colon | NCI-H23 lung | HCT-15 colon | SK-MEL-28 melanoma | ACHN renal | SF-295 CNS | SNB-78 CNS | LXFL 529 NSCLC | OVCAR-5 ovarian | SNB-19 CNS | DMS 114 small cell lung | EKVX NSCLC | A549 NSCLC | SNB-75 CNS | HCC-2998 colon | U251 CNS | UACC-257 melanoma | SR leukemia | LOX IMVI melanoma | DMS 273 small cell lung | HOP-62 NSCLC | HT29 colon | NCI-H460 lung | M19-MEL melanoma | RXF 393 renal | DLD-1 colon | HOP-92 NSCLC | SF-268 CNS | OVCAR-8 ovarian | KM12 colon | 786-0 renal | HCT-116 colon | NCI-H226 lung | SK-OV-3 ovarian | IGROV1 ovarian | SF-539 CNS | OVCAR-3 ovarian | K-562 leukemia | CAKI-1 renal | TK-10 renal | OVCAR-4 ovarian | SW-620 colon | RPMI-8226 leukemia | CCRF-CEM leukemia

Cc1ccc(Oc2ccc(C(=O)c3cccc(C(=O)c4ccc(Oc5ccc(C)cc5)cc4)n3)cc2)cc1
> 100 µM: UACC-62 melanoma | SK-MEL-2 melanoma | HOP-18 NSCLC | HL-60(TB) leukemia | NCI-H522 lung | MOLT-4 leukemia | SK-MEL-5 melanoma | COLO 205 colon | M14 melanoma | MALME-3M melanoma | SN12C renal | KM20L2 colon | NCI-H23 lung | HCT-15 colon | SK-MEL-28 melanoma | ACHN renal | SF-295 CNS | SNB-78 CNS | LXFL 529 NSCLC | A498 renal | OVCAR-5 ovarian | SNB-19 CNS | DMS 114 small cell lung | EKVX NSCLC | A549 NSCLC | SNB-75 CNS | HCC-2998 colon | U251 CNS | UACC-257 melanoma | SR leukemia | LOX IMVI melanoma | DMS 273 small cell lung | HOP-62 NSCLC | HT29 colon | NCI-H460 lung | RXF 393 renal | DLD-1 colon | HOP-92 NSCLC | SF-268 CNS | OVCAR-8 ovarian | KM12 colon | 786-0 renal | HCT-116 colon | NCI-H226 lung | SK-OV-3 ovarian | IGROV1 ovarian | SF-539 CNS | OVCAR-3 ovarian | K-562 leukemia | CAKI-1 renal | TK-10 renal | OVCAR-4 ovarian | SW-620 colon | UO-31 renal | CCRF-CEM leukemia
